Laboratory results as given in patent publication US20230227437A1, “IMMUNOMODULATOR” (priority 2020, published 2023).

Assays:
human IL-17A (hIL-17A) = biological target: T1, human IL-17A (hIL-17A) (Homo sapiens, UniProt Q16552); experiment: IL-17A enzyme-linked immunosorbent assay (competitive ELISA, receptor-ligand binding)
T1 construct: purchased Sino Biological Inc. 12047-H07B
T1 sequence (Q16552 24-155): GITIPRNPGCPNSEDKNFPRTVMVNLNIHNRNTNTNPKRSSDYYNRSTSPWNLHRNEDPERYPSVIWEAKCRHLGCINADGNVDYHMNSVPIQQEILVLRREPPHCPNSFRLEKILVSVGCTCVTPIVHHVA
Description: The inhibition of receptor-ligand binding by human IL-17A (hIL-17A) inhibitors was detected by competitive ELISA. A 96-well plate was inoculated 0.2 μg/ml IL-17 (Sino Biological Inc. Cat #12047-H07B) for incubation at 37° C. for 30 min, 100 μL for per well. The 96-well plate was washed four times with phosphate buffered saline (PBS) containing Tween-20 (PBST, 0.05% Tween-20), 200 μL for per well each time. 200 μL of 5% skim milk were added into the 96-well plate for incubation on a shaker at 25° C. for 30 min. The 96-well plate was washed four times with PBST (0.05% Tween-20), and added with 89 μL of PBST and 1 μL of a compound to be measured (100×), in which a concentration the compound to be measured (100×) was 0.003 μM-30 μM. The mixture was mixed evenly and incubated at 25° C. for 10 min. The mixture was added with 10 μL of 16 nM IL-17R, followed by incubation at 25° C. for 30 min. After washing the 96-well plate 4 times, 100 μL of anti-Fc tag horseradish peroxidase (HRP) coupled antibody were added for incubation on a shaker at 25° C. for 30 min. After washing the 96-well plate 4 times, 100 μL of 3,3′,5,5′-tetramethylbenzidine (TMB) substrate solution were added to the 96-well plate for incubation away from light at 25° C. After addition of 20% HCl, an absorbance was measure by a microplate reader at 450 nm.
The compounds prepared according to the above method were assayed for human IL-17A inhibitory activity.

hIL-17A = biological target: T2, hIL-17A (Homo sapiens, UniProt Q16552); experiment: Inhibition of hIL-17A-induced chemokine GROα/CXCL1 production in HT-29 cell; format: cell-based
T2 construct: purchased R&D 317-ILB
T2 sequence (Q16552 20-155 limits assumed): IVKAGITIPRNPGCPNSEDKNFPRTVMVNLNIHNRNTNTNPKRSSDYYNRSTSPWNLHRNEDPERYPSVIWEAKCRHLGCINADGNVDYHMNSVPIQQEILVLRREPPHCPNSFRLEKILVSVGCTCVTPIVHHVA
Description: Human colorectal adenocarcinoma cell HT-29 was inoculated to a 96-well plate (5×10^4 for per well), and incubated at 37° C. on an incubator overnight. A mixture of 30 ng/mL hIL-17A protein (R&D, #317-ILB) with gradient concentrations of IL-17A small molecule inhibitors or with 0.3 μg/mL positive control IL-17A antibody (R&D, #AF-317-NA) was incubated for 1 h at 37° C., and added into the 96-well plate to incubated with HT-29 at 37° C. for 48 h. A level of GROα in a cell culture supernatant was then detected using an ELISA kit for GROα (Cisbio, #62HCXC1peg).
Inhibitory effect of the compound prepared in Examples on hIL-17A-induced chemokine GROα/CXCL1 production in HT-29 cell was tested according to the methods of Experimental Examples 1 and 2. […] “-” indicated not tested. According to the results, the compounds provided herein have good human IL-17A inhibitory activity and can be effectively used in the treatment of diseases associated with abnormal hIL-17A activity.

| Compound | IC50 (human IL-17A (hIL-17A)) | IC50 (hIL-17A) |
| --- | --- | --- |
| Cc1n[nH]c(C)c1-c1ncc(NC(=O)[C@@H](NC(=O)c2nonc2C(C)C)C2c3ccc(F)c(F)c3OCC23CC3)cc1F (stereo partly shown) [Compound 64] | 154 nM | 335 nM |
| Cc1n[nH]c(C)c1-c1ccc(NC(=O)[C@@H](NC(=O)c2ccnn2C)C2c3cc(F)ccc3OCC23CC3)cc1 (stereo partly shown) [Compound 4] | 50 nM | 50 nM |
| Cc1n[nH]c(C)c1-c1ccc(NC(=O)[C@@H](NC(=O)c2ccnn2C)C2c3c(F)cccc3CC23CC3)cc1 (stereo partly shown) [Compound 13] | 31 nM | 391 nM |
| Cc1n[nH]c(C)c1-c1ccc(NC(=O)[C@@H](NC(=O)c2nocc2C(C)C)C2c3ccc(F)cc3OCC23CC3)cn1 (stereo partly shown) [Compound 33] | 219 nM | 92 nM |
| Cc1nonc1C(=O)N[C@H](C(=O)Nc1ccc(-c2c(C)n[nH]c2C)cc1)C1c2cc(F)cc(F)c2OCC12CC2 (stereo partly shown) [Compound 69] | 288 nM | 941 nM |
| Cc1n[nH]c(C)c1-c1ncc(NC(=O)[C@@H](NC(=O)c2nonc2C2CC2)C2c3ccc(F)c(F)c3OCC23CC3)cc1F (stereo partly shown) [Compound 86] | 179 nM | 718 nM |
| Cc1n[nH]c(C)c1-c1ncc(NC(=O)[C@@H](NC(=O)c2nonc2C2CC2)C2c3ccc(F)cc3OCC23CC3)cc1F (stereo partly shown) [Compound 91] | 67 nM | 1080 nM |
| Cc1n[nH]c(C)c1-c1ccc(NC(=O)[C@@H](NC(=O)c2ccnn2C(C)C)C2c3cc(F)cc(F)c3OCC23CC3)cc1 (stereo partly shown) [Compound 70] | 201 nM | 112 nM |
| Cc1n[nH]c(C)c1-c1ccc(NC(=O)[C@@H](NC(=O)c2conc2C2CC2)C2c3cc(F)c(F)cc3OCC23CC3)cn1 (stereo partly shown) [Compound 97] | 165 nM | 221 nM |
| Cc1n[nH]c(C)c1-c1ccc(NC(=O)[C@@H](NC(=O)c2nonc2C(C)C)C2c3ccc(F)c(F)c3OCC23CC3)cc1 (stereo partly shown) [Compound 65] | 222 nM | 212 nM |
| Cc1n[nH]c(C)c1-c1ccc(NC(=O)[C@@H](NC(=O)c2ccnn2C(C)C)C2c3c(F)cc(F)cc3OCC23CC3)cn1 (stereo partly shown) [Compound 59] | 222 nM | 1480 nM |
| Cc1n[nH]c(C)c1-c1ncc(NC(=O)[C@@H](NC(=O)c2conc2C2CC2)C2c3ccc(F)cc3OCC23CC3)cc1F (stereo partly shown) [Compound 100] | 189 nM | 563 nM |
| Cc1n[nH]c(C)c1-c1ccc(NC(=O)[C@@H](NC(=O)c2nocc2C(C)C)C2c3ccc(F)cc3OCC23CC3)cc1 (stereo partly shown) [Compound 35] | 311 nM | 85 nM |
| CCc1nonc1C(=O)N[C@H](C(=O)Nc1ccc(-c2c(C)n[nH]c2C)nc1)C1c2cc(F)ccc2OCC12CC2 (stereo partly shown) [Compound 23] | 98 nM | 1050 nM |
| Cc1n[nH]c(C)c1-c1ccc(NC(=O)[C@@H](NC(=O)c2nonc2C(C)C)C2c3cc(F)c(F)cc3OCC23CC3)cn1 (stereo partly shown) [Compound 44] | 122 nM | 336 nM |
| Cc1n[nH]c(C)c1-c1ccc(NC(=O)[C@@H](NC(=O)c2nonc2C2CC2)C2c3ccc(F)c(F)c3OCC23CC3)cc1 (stereo partly shown) [Compound 87] | 165 nM | 332 nM |
| Cc1n[nH]c(C)c1-c1ccc(NC(=O)[C@@H](NC(=O)c2nonc2C(C)C)C2c3cc(F)cc(F)c3OCC23CC3)cn1 (stereo partly shown) [Compound 73] | 294 nM | 795 nM |
| Cc1n[nH]c(C)c1-c1ccc(NC(=O)[C@@H](NC(=O)c2nonc2C2CC2)C2c3cc(F)cc(F)c3OCC23CC3)cc1 (stereo partly shown) [Compound 80] | 406 nM | 762 nM |
| Cc1n[nH]c(C)c1-c1ccc(NC(=O)[C@@H](NC(=O)c2nonc2C2CC2)C2c3c(F)cc(F)cc3OCC23CC3)cc1 (stereo partly shown) [Compound 67] | 577 nM | 557 nM |
| Cc1n[nH]c(C)c1-c1ccc(NC(=O)[C@@H](NC(=O)OC2CC2)C2c3cc(F)c(F)cc3OCC23CC3)cn1 (stereo partly shown) [Compound 105] | 81 nM | 943 nM |
| Cc1n[nH]c(C)c1-c1ncc(NC(=O)[C@@H](NC(=O)c2ccnn2C(C)C)C2c3cc(F)cc(F)c3OCC23CC3)cc1F (stereo partly shown) [Compound 72] | 343 nM | 1810 nM |

| Compound | IC50 (human IL-17A (hIL-17A)) | IC50 (hIL-17A) |
| --- | --- | --- |
| Cc1n[nH]c(C)c1-c1ccc(NC(=O)[C@@H](NC(=O)c2nonc2C(C)C)C2c3ccc(F)cc3OCC23CC3)cc1F (stereo partly shown) [Compound 40] | 186 nM | 115 nM |
| Cc1n[nH]c(C)c1-c1ncc(NC(=O)[C@@H](NC(=O)c2ccnn2C(C)C)C2c3ccc(F)c(F)c3OCC23CC3)cc1F (stereo partly shown) [Compound 51] | 155 nM | 313 nM |
| Cc1n[nH]c(C)c1-c1ccc(NC(=O)[C@@H](NC(=O)c2ccnn2C)C2c3ccc(F)cc3OCC23CC3)cc1 (stereo partly shown) [Compound 17] | 36 nM | 68 nM |
| Cc1n[nH]c(C)c1-c1ncc(NC(=O)[C@@H](NC(=O)c2ccnn2C(C)C)C2c3c(F)cc(F)cc3OCC23CC3)cc1F (stereo partly shown) [Compound 60] | 193 nM | 279 nM |
| Cc1n[nH]c(C)c1-c1ncc(NC(=O)[C@@H](NC(=O)c2ccnn2C)C2c3ccc(F)cc3CC23CC3)cc1F (stereo partly shown) [Compound 30] | 65 nM | 229 nM |
| Cc1n[nH]c(C)c1-c1ccc(NC(=O)[C@@H](NC(=O)c2ccnn2C)C2c3cc(F)ccc3CC23CC3)cc1 (stereo partly shown) [Compound 2] | 41 nM | 196 nM |
| Cc1n[nH]c(C)c1-c1ncc(NC(=O)[C@@H](NC(=O)c2ccnn2C(C)C)C2c3ccc(F)cc3OCC23CC3)cc1F (stereo partly shown) [Compound 90] | 144 nM | 188 nM |
| CCc1nocc1C(=O)N[C@H](C(=O)Nc1ccc(-c2c(C)n[nH]c2C)cc1)C1c2ccc(F)cc2OCC12CC2 (stereo partly shown) [Compound 36] | 144 nM | 58 nM |
| Cc1n[nH]c(C)c1-c1ccc(NC(=O)[C@@H](NC(=O)c2nonc2C(C)C)C2c3ccc(F)cc3OCC23CC3)cc1 (stereo partly shown) [Compound 28] | 110 nM | 83 nM |
| Cc1nonc1C(=O)N[C@H](C(=O)Nc1ccc(-c2c(C)n[nH]c2C)nc1)C1c2ccc(F)cc2OCC12CC2 (stereo partly shown) [Compound 27] | 119 nM | 672 nM |
| Cc1n[nH]c(C)c1-c1ccc(NC(=O)[C@@H](NC(=O)c2ccnn2C)C2c3cc(F)ccc3OCC23CC3)cn1 (stereo partly shown) [Compound 22] | 85 nM | 1020 nM |
| COCc1[nH]nc(C)c1-c1ccc(NC(=O)[C@@H](NC(=O)c2nonc2C)C2c3ccc(F)c(F)c3OCC23CC3)cc1 (stereo partly shown) [Compound 85] | 133 nM | 1220 nM |
| Cc1nonc1C(=O)N[C@H](C(=O)Nc1ccc(-c2c(C)n[nH]c2C)cc1)C1c2ccc(F)c(F)c2OCC12CC2 (stereo partly shown) [Compound 57] | 112 nM | 346 nM |
| Cc1n[nH]c(C)c1-c1ccc(NC(=O)[C@@H](NC(=O)OC2CC2)C2c3cc(F)c(F)cc3OCC23CC3)cc1 (stereo partly shown) [Compound 106] | 66 nM | 119 nM |
| Cc1n[nH]c(C)c1-c1ncc(NC(=O)[C@@H](NC(=O)c2nonc2C(C)C)C2c3cc(F)cc(F)c3OCC23CC3)cc1F (stereo partly shown) [Compound 68] | 503 nM | 1940 nM |
| Cc1n[nH]c(C)c1-c1ccc(NC(=O)[C@@H](NC(=O)c2ccnn2C(C)C)C2c3cc(F)c(F)cc3OCC23CC3)cc1 (stereo partly shown) [Compound 48] | 135 nM | 184 nM |
| Cc1n[nH]c(C)c1-c1ccc(NC(=O)[C@@H](NC(=O)c2ccnn2C)C2c3ccc(F)cc3CC23CC3)cn1 (stereo partly shown) [Compound 31] | 72 nM | 872 nM |
| Cc1n[nH]c(C)c1-c1ncc(NC(=O)[C@@H](NC(=O)c2nonc2C(C)C)C2c3cc(F)c(F)cc3OCC23CC3)cc1F (stereo partly shown) [Compound 46] | 95 nM | 122 nM |
| Cc1n[nH]c(C)c1-c1ccc(NC(=O)[C@@H](NC(=O)c2ccnn2C(C)C)C2c3ccc(F)c(F)c3OCC23CC3)cn1 (stereo partly shown) [Compound 50] | 81 nM | 569 nM |
| Cc1n[nH]c(C)c1-c1ccc(NC(=O)[C@@H](NC(=O)c2ccnn2C)C2c3ccc(F)cc3CC23CC3)cc1 (stereo partly shown) [Compound 16] | 43 nM | 55 nM |
